Measurements taken from patent publication US4370330A, “Method of enhancing circulation with piperazines” (Merz & Company, priority 1979, dated 1983).
Counter-ions that a name gives are not always drawn. Like-named read-outs stand apart in the source and are kept apart here.

Tests used:
[1] = system: cerebrovascular resistance; experiment: cerebrovascular resistance on the rabbit (Hutten and Vaupel), decrease in vascular resistance after arterial application; assay type: in vivo; conditions: for inhibition in vivo at 1 %: Oryctolagus cuniculus, read-out: ΔR % (relative decrease in vascular resistance)
Description: The therapeutic effect is expressed in terms of decrease in vascular resistance.
For this purpose 0.1 ml of a 1% solution of the test substance, i.e., according to the invention, was administered to the rabbit by arterial application. The decrease in vascular resistance (R) and the relative decrease in vascular resistance (ΔR%) were recorded and expressed in mm Hg min/l or in the valid S.I. unit k Pa min/ml, i.e., absolute decrease of resistance x time.
The activity of this compound was tested by means of the aforementioned method.

[2] = acute toxicity after oral application, LD50; conditions: in vivo
Text: The therapeutic range of the substances according to the invention can again be described as excellent, since the LD50 values lie in a favorable range, as is shown by the results of acute toxicity tests on the mouse after oral application.

in vivo [3] = experiment: in vivo
in vivo [4] = experiment: in vivo; remark: listed apart in the source
Text: The calculation of the therapeutic indices was based on the

[5] = Table 2; mean effective dose
[6] = Table 1, rabbit, 0.1 ml of a 1% solution, arterial application
[7] = Table 4, rabbit, 0.1 ml of a 1% solution, arterial application
[8] = mouse, po, read-out: Acute toxicity LD50, 24 h
[9] = mouse, po, read-out: Acute toxicity LD50, 14 days
[10] = Table 3, mouse oral, 24 h, read-out: Acute toxicities LD50, 24 h
[11] = Table 3, mouse oral, 14 days, read-out: Acute toxicities LD50, 14 days

Row | SMILES | inhibition in vivo at 1 % [1, 6] | Absolute decrease of vascular resistance R [1, 6] | LD50 at 24 h [2, 10] | LD50 at 336 h [2, 11] | ED50 [5] | selectivity ratio (in vivo [3]; iv) | LD50 (in vivo [4]; iv) | other results
1 | C(=C\c1ccccc1)/CN1CCN(C(c2ccccc2)c2ccccc2)CC1 [Cinnarizine, reference compound] | 19.3% | 2,9 mm Hg min/l | – | – | – | – | – | Absolute decrease in vascular resistance R [1, 7]: 2.9 mm Hg min/l
2 | COc1cc(CN2CCN(c3ccc(C)c(C)c3)CC2)cc(OC)c1OC [Example 1] | – | – | – | – | – | – | – | LD50 at 24 h [2, 8]: 348 mg/kg; LD50 at 336 h [2, 9]: 263 mg/kg; selectivity ratio (in vivo [3]): 13000; LD50 (in vivo [4]): 260 mg/kg; inhibition in vivo at 1 % [1, 7]: 24.3%
3 | COc1cc(CN2CCN(c3ccc(Cl)c(C(F)(F)F)c3)CC2)cc(OC)c1OC [Example 2] | – | – | – | – | – | – | – | LD50 at 24 h [2, 8]: 328 mg/kg; LD50 at 336 h [2, 9]: 283 mg/kg; selectivity ratio (in vivo [3]): 3150; LD50 (in vivo [4]): 283 mg/kg; inhibition in vivo at 1 % [1, 7]: 26.3%
4 | COc1cc(CN2CCN(c3ccc4c(c3)OCO4)CC2)cc(OC)c1OC [Example 3] | – | – | – | – | – | – | – | LD50 at 24 h [2, 8]: 312 mg/kg; LD50 at 336 h [2, 9]: 296 mg/kg; selectivity ratio (in vivo [3]): 2700; LD50 (in vivo [4]): 297 mg/kg; inhibition in vivo at 1 % [1, 7]: 22%
5 | COc1cc(CN2CCN(c3cc(OC)c(OC)c(OC)c3)CC2)cc(OC)c1OC [Example 4] | – | – | – | – | – | – | – | LD50 at 24 h [2, 8]: 348 mg/kg; LD50 at 336 h [2, 9]: 348 mg/kg; selectivity ratio (in vivo [3]): 7000; LD50 (in vivo [4]): 350 mg/kg; inhibition in vivo at 1 % [1, 7]: 21.5%
6 | COc1cc(CN2CCN(c3cc(C(F)(F)F)cc(C(F)(F)F)c3)CC2)cc(OC)c1OC [Example 5] | – | – | – | – | – | – | – | LD50 at 24 h [2, 8]: 300 mg/kg; LD50 at 336 h [2, 9]: 280 mg/kg; selectivity ratio (in vivo [3]): 5600; LD50 (in vivo [4]): 280 mg/kg; inhibition in vivo at 1 % [1, 7]: 20.6%
7 | COc1cc(CN2CCN(c3c(C)cccc3C)CC2)cc(OC)c1OC [Example 6] | – | – | – | – | – | – | – | LD50 at 24 h [2, 8]: 348 mg/kg; LD50 at 336 h [2, 9]: 265 mg/kg; selectivity ratio (in vivo [3]): 3800; LD50 (in vivo [4]): 265 mg/kg; inhibition in vivo at 1 % [1, 7]: 23%
8 | COc1cc(CN2CCN(c3ccccc3)CC2)cc(OC)c1OC.Cl [Example 21, N-(3,4,5-trimethoxy-benzyl)-N'-phenyl-piperazine hydrochloride] | – | – | – | – | – | – | – | LD50 at 24 h ([2]; mouse, oral, 24 hours, read-out: oral acute toxicity (LD50) after 24 hours): 320 mg/kg; LD50 at 336 h ([2]; mouse, oral, fourteen days, read-out: oral acute toxicity (LD50) after fourteen days): 265 mg/kg; Absolute decrease of vascular resistance R ([1]; Hutten and Vaupel rabbit test): 3.0 mm. Hg. min/l; circulation stimulant activity (in words) ([1]; Hutten and Vaupel rabbit test): circulation stimulant; decrease of vascular resistance (ΔR %) ([1]; Hutten and Vaupel rabbit test): 23.2%
9 | COc1cccc(N2CCN(Cc3cc(OC)c(OC)c(OC)c3)CC2)c1.Cl [m. Methoxy-, N-(3,4,5-trimethoxy-benzyl)-N'-(3-methoxyphenyl)-piperazine hydrochloride] | 28.5% | 3,0 mm Hg min/l | 411 mg/kg | 285 mg/kg | 0,42 mg/kg | 2010 | 850 mg/kg | –
10 | COc1cc(CN2CCN(c3cccc(C)c3)CC2)cc(OC)c1OC.Cl [m. Methyl-, N-(3,4,5-trimethoxy-benzyl)-N'-(3-methylphenyl)-piperazine hydrochloride] | 22% | 3,2 mm Hg min/l | 452 mg/kg | 310 mg/kg | 0,46 mg/kg | 1520 | 700 mg/kg | –
11 | COc1cc(CN2CCN(c3ccccc3Cl)CC2)cc(OC)c1OC.Cl.Cl [o. Chloro-, N-(3,4,5-trimethoxy-benzyl)-N'-(2-chlorophenyl)-piperazine dihydrochloride] | 27.9% | 3,0 mm Hg min/l | 295 mg/kg | 255 mg/kg | 0,38 mg/kg | 2130 | 810 mg/kg | –
12 | CCOc1ccccc1N1CCN(Cc2cc(OC)c(OC)c(OC)c2)CC1.Cl.Cl [o. Ethoxy-, N-(3,4,5-trimethoxy-benzyl)-N'-(2-ethoxyphenyl)-piperazine dihydrochloride] | 20.4% | 2,85 mm Hg min/l | 411 mg/kg | 266 mg/kg | 0,45 mg/kg | 1990 | 900 mg/kg | –
13 | CCc1ccccc1N1CCN(Cc2cc(OC)c(OC)c(OC)c2)CC1.Cl.Cl [o. Ethyl-, N-(3,4,5-trimethoxy-benzyl)-N'-(2-ethylphenyl)-piperazine dihydrochloride] | 21.7% | 3,0 mm Hg min/l | 456 mg/kg | 311 mg/kg | 0,40 mg/kg | 2240 | 900 mg/kg | –
14 | COc1cc(CN2CCN(c3ccccc3F)CC2)cc(OC)c1OC.Cl [o. Fluoro-, N-(3,4,5-trimethoxy-benzyl)-N'-(2-fluorophenyl)-piperazine hydrochloride] | 23% | 3,0 mm Hg min/l | – | – | 0,40 mg/kg | 2280 | 920 mg/kg | –
15 | COc1ccccc1N1CCN(Cc2cc(OC)c(OC)c(OC)c2)CC1.Cl.Cl [o. Methoxy-, N-(3,4,5-trimethoxy-benzyl)-N'-(2-methoxyphenyl)-piperazine dihydrochloride] | 22.2% | 2,94 mm Hg min/l | – | – | 0,42 mg/kg | 2750 | 1150 mg/kg | –
16 | COc1cc(CN2CCN(c3ccccc3C)CC2)cc(OC)c1OC [o. Methyl-, N-(3,4,5-trimethoxybenzyl)-N'-(2-methylphenyl)-piperazine] | 24.5% | 3,3 mm Hg min/l | 457 mg/kg | 311 mg/kg | 0,48 mg/kg | 1450 | 700 mg/kg | –
17 | COc1cc(CN2CCN(c3ccccc3[N+](=O)[O-])CC2)cc(OC)c1OC.Cl [o. Nitro-, N-(3,4,5-trimethoxy-benzyl)-N'-(2-nitrophenyl)-piperazine hydrochloride] | 20.6% | 3,1 mm Hg min/l | 274 mg/kg | 201 mg/kg | 0,50 mg/kg | 1300 | 650 mg/kg | –
18 | COc1cc(CN2CCN(c3ccc(F)cc3)CC2)cc(OC)c1OC.Cl [p. Fluoro-, N-(3,4,5-trimethoxy-benzyl)-N'-(4-fluorophenyl)-piperazine hydrochloride] | 26.4% | 4,6 mm Hg min/l | 350 mg/kg | 275 mg/kg | 0,37 mg/kg | 1570 | 580 mg/kg | –
19 | COc1cc(CN2CCN(c3ccc(O)cc3)CC2)cc(OC)c1OC.Cl [p. Hydroxy-, N-(3,4,5-trimethoxy-benzyl)-N'-(4-hydroxyphenyl)-piperazine hydrochloride] | 19.5% | 2,8 mm Hg min/l | 306 mg/kg | 245 mg/kg | 0,45 mg/kg | 2800 | 1260 mg/kg | –
20 | COc1ccc(N2CCN(Cc3cc(OC)c(OC)c(OC)c3)CC2)cc1.Cl.Cl [p. Methoxy-, N-(3,4,5-trimethoxy-benzyl)-N'-(4-methoxyphenyl)-piperazine dihydrochloride] | – | 3,90 mm Hg min/l | – | – | 0,30 mg/kg | 3050 | 910 mg/kg | inhibition in vivo at 1 % [1]: 27.8%
21 | COc1cc(CN2CCN(c3ccc(C)cc3)CC2)cc(OC)c1OC [p. Methyl-, hydrochloride] | 23% | 3,3 mm Hg min/l | 459 mg/kg | 312 mg/kg | 0,44 mg/kg | 1630 | 720 mg/kg | –
